The test system of assay [1] is NCI-H446 cells. The assay can be described thus: Cell viability IC50 (CCK-8), small cell lung cancer cell line H446. The assay is classed as cell-based. As to conditions: Homo sapiens, NCI-H446; H446, CCK-8. The procedure:
Small cell lung cancer cell lines DMS114, NCI-H1688, NCI-H82, NCI-H146, and NCI-H446 cells were cultured in RPMI-1640 medium containing 10% fetal bovine serum and 1% penicillin-streptomycin. All the cells were cultured in a constant temperature incubator containing 5% CO2 at 37° C.
Small cell lung cancer is a highly heterogeneous malignant tumor, and its clinical treatment is mainly based on traditional chemotherapy (mainly platinum medicaments and etoposide). In order to study the anti-tumor activity of the compounds of the present disclosure in small cell lung cancer, the CCK-8 method was used to investigate the cell viability IC50 of compound 8 for five small cell lung cancer cell lines.

In assay [2] the test system is PE039 primary cells. Nature of the assay: Cell viability IC50 (CCK-8), primary cells PE039 from small cell lung cancer pleural effusion. The assay is classed as cell-based. As to conditions: PE039, CCK-8. The procedure:
(1) The pleural effusion was poured into a 15 mL or 50 mL of sterilized centrifuge tube for centrifugation. Centrifugation conditions: 800 to 1000 rpm, 5 min.
(2) The precipitate was resuspended and washed for 2 to 3 times with PBS.
(3) The cell precipitate was resuspended with complete culture medium (α-MEM medium containing 10% fetal bovine serum and 2% penicillin-streptomycin), and the flocculent matter in the pleural effusion was removed using a sterilized cell sieve.
(4) The red blood cells in the pleural effusion were removed with lymphocyte separation fluid, and the tumor cells and lymphocyte components were collected. The number of tumor cells was observed under a microscope, and the cells were inoculated.
(5) After 24 hours, the supernatant was discarded, and fresh culture medium was added for further culture.
(6) The cell growth status was observed, and it was determined based on the cell status whether the medium was required to be continuously changed to remove blood cells. When the cells grew to a density of 80% to 90%, the cells were preserved.
(1) Primary cells from lung cancer pleural effusion within 5 generations were cultured to the logarithmic growth phase. […] After centrifugation at room temperature, the supernatant was discarded, and the cell precipitate was resuspended with fresh complete culture medium. After counting, the cells were placed at room temperature for later use. The cells were inoculated into a 384-well plate at a density of 2000 cells/well with a volume of 40 μl/well. The wells at the outermost circle of the plate were not inoculated with cells, and instead, added with sterile water to reduce evaporation of the culture medium.
(2) After overnight culture of the cells, the medium was discarded, and a fresh medium containing different concentrations of compounds was added at 200 μl/well. The dilution method of the compound was as follows: first the compound with the highest concentration of 10 μM was prepared, and then the compound was diluted for 3 times in sequence. […] At the same time, a blank control group was set up, in which only an equal volume of culture medium was added without adding cells. Five replicate wells were set up for each group. The cells were placed in the incubator for further culture.
(3) After 72 hours, 8 μl of CCK-8 solution, which was double-diluted with 10 mM PBS, was added to each well, and the cells were shaken and placed in an incubator at 37° C. for further culture for 2 hours.
(4) The light absorbance value at 450 nm was read using a microplate reader, and the IC50 was calculated according to the absorbance value. The calculation method was the same as above. […]

In assay [3] the test system is SW620 (colon cancer). Nature of the assay: Cell viability IC50 (CellTiter-Glo), SW620. It is filed as cell-based. As to conditions: Homo sapiens, SW-620, SW620, 72 hours. The procedure:
(§1) The cancer cell lines were cultured to the logarithmic growth phase according to conventional culture methods, and the cells were inoculated into a 384-well plate at a density of 2,000 cells/well in a volume of 40 μl/well. The concentrations of added compounds were: […], 1.67 μM, 0.56 μM, 0.19 μM, 0.062 μM, 0.021 μM, 0.0069 μM, 0.0023 μM, 0.00076 μM, and 0 μM. After 72 hours, cell viability was detected using the CellTiter-Glo™ Detection Kit.
(ATP-based viability assays read luminescence as a measure of living cells.)

Assay [4] concerns MDA-MB-231 (breast cancer). The assay can be described thus: Cell viability IC50 (CellTiter-Glo), MDA-MB-231. As to conditions: Homo sapiens, MDA-MB-231, 72 hours. It is filed as cell-based. The procedure:
as §1

Assay [5] deals with MCF-7 (breast cancer). The assay can be described thus: Cell viability IC50 (CellTiter-Glo), MCF-7. As to conditions: Homo sapiens, MCF7, MCF-7, 72 hours. It is filed as cell-based. The procedure: as §1
In assay [6] the test system is Hep3B (liver cancer). Nature of the assay: Cell viability IC50 (CellTiter-Glo), Hep3B. The assay is classed as cell-based. As to conditions: Homo sapiens, 72 hours. The procedure: as §1
In assay [7] the test system is Hela (cervical cancer). The assay can be described thus: Cell viability IC50 (CellTiter-Glo), Hela. The assay is classed as cell-based. As to conditions: Homo sapiens, 72 hours. The procedure: as §1
Assay [8] has as its system LN-18 (glioma). The assay can be described thus: Cell viability IC50 (CellTiter-Glo), LN-18. As to conditions: Homo sapiens, LN-18, 72 hours. The assay is classed as cell-based. The procedure: as §1
Assay [9] has as its system PC-3 (prostate cancer). The assay can be described thus: Cell viability IC50 (CellTiter-Glo), PC-3. As to conditions: PC-3, 72 hours. It is filed as cell-based. The procedure:
as §1

In assay [10] the test system is NCI-H1650 cells. Nature of the assay: Cell viability IC50 (MTT), Gefitinib- and Osimertinib-resistant NCI-H1650 cells. As to conditions: Homo sapiens, NCI-H1650, 72 h, read-out: cell viability IC50.
Method: 1% sodium pyruvate was additionally added when culturing NCI-H1975 cells. All the cells were cultured in a constant temperature incubator containing 5% CO2 at 37° C.
(1) The cells were cultured to the logarithmic growth phase. […] After centrifugation at room temperature, the supernatant was discarded, and the cell precipitate was resuspended with fresh complete medium. After counting, the cells were placed at room temperature for later use.
(2) The cells were inoculated into a 96-well plate at a density of 4,000 cells/well with a volume of 100 μl/well. The wells at the outermost circle of the plate were not inoculated with cells, and instead, added with sterile water to reduce evaporation of the culture medium.
(3) After overnight culture of the cells, the medium was discarded, and a fresh medium containing different concentrations of compounds was added at 200 μl/well. The dilution method of the compound was as follows: first the compound with the highest concentration of 10 μM was prepared, and then the compound was diluted for 3 times in sequence. […] At the same time, a blank control group was set up, in which only an equal volume of culture medium was added without adding cells. Six replicate wells were set up for each group. The cells were placed in the incubator for further culture.
(4) After 72 hours, 20 μl of MTT solution (5 mg/ml) sterilized by filtration through a 0.22 m filter membrane was added to each well, and the cells were cultured in an incubator at 37° C. for another 4 hours.
(6) IC50 of the compounds for different cells was calculated based on the light absorption value of each group. Specifically, the absorbance value under treatment with different concentrations of compounds was first subtracted from the absorbance value of the blank well, and then the absorbance value of the 0 μM group was taken as 100% to calculate the cell survival rate after treatment with different concentrations of compounds. That is, survival rate=((ODexperimental well−ODblank control)/(ODnegative control−ODblank control))×100%. IC50 values were calculated based on the survival rate and concentration of the compound.

Structures are written as SMILES.

Broadly, the IC50 is the concentration needed to halve the response being measured. As for `CN1CC2CCC(C1)N2Cc1ccc(Nc2ncc(Cl)c(Nc3ccccc3S(=O)(=O)N(C)C)n2)cc1` [Compound 8, 2-((5-chloro-2-((4-((3-methyl-3,8-diazabicyclo[3.2.1]octan-8-yl)methyl)phenyl)amino)pyrimidin-4-yl)amino)-N,N-dimethylbenzenesulfonamide], the IC50 in [1] amounted to 7.58 nM; in [2], 51.5 nM; in assay [3] it was 101 nM; in [4], 49.9 nM; in [5], 52.8 nM; in assay [6], 185 nM. In addition, the 50% inhibitory concentration (IC50) in assay [7] was 123 nM; in assay [8], 7.8 nM; in [9], over 3000 nM; in assay [10], 83.6 nM.

(Values after patent US20240360145A1, “PYRIMIDINE-2,4-DIAMINE DERIVATIVES AS WELL AS PREPARATION METHOD THEREFOR AND USE THEREOF” (LISEN THERAPEUTICS, INC., priority 2022, published 2024).)
